Results on one compound are retold here after ChEMBL document CHEMBL5346962, “Discovery of Sulanemadlin (ALRN-6924), the First Cell-Permeating, Stabilized α-Helical Peptide in Clinical Development” (J Med Chem, 2023).

Bridge positions count the residues as written; N and C are the ends. Square brackets hold non-standard residues; d marks the D form. Peptide text beside a SMILES is read from it. R8 = C=CCCCCCC[C@@](C)(N)C(=O)O; S5 = C=CCCC[C@](C)(N)C(=O)O

The experiment deals with SJSA-1. The experiment in a line: Cytotoxicity against human SJSA-1 cells incubated for 72 hrs in presence of 10% FBS by MTT assay. The note with it: SJSA-1, 72 h. A general note: Tetrazolium assays rely on reduction of a dye to a coloured formazan, in cell work by metabolically active cells.

Turning to `CC(=O)N[C@@H](CC(C)C)C(=O)N[C@H](C(=O)N[C@@H](Cc1ccccc1)C(=O)N[C@]1(C)CCCCCC/C=C\CCC[C@@](C)(C(=O)N[C@@H](C)C(=O)N[C@@H](C)C(=O)N[C@@H](C)C(=O)O)NC(=O)[C@H](CC(C)C)NC(=O)[C@H](CCC(N)=O)NC(=O)[C@H](C)NC(=O)[C@H](Cc2c[nH]c3ccccc23)NC(=O)[C@H](Cc2ccc(O)cc2)NC(=O)[C@H](CCC(=O)O)NC1=O)[C@@H](C)O` (Ac-LTF[R8]EYWAQL[S5]AAA-OH; staple (Z) 4-11), the EC50 – broadly, the concentration that produces a half-maximal response – came to 2500 nM.
